Test results taken from patent US20090220435A1, “TIGHT JUNCTION MODULATING PEPTIDE COMPONENTS FOR ENHANCING MUCOSAL DELIVERY OF THERAPEUTIC AGENTS” (priority 2005, published 2009).
Like-named read-outs stand apart in the source and are kept apart here. Non-standard residues stand in square brackets, D forms with d. Residues, ends and D or L forms follow the SMILES beside them.

Experiments:
[1] = system: EpiAirway™ human-derived tracheal/bronchial epithelial cells; assay: Transepithelial electrical resistance (TER) across EpiAirway epithelial cell layer; assay type: cell-based; details: for TER(x)/TER(159) +/− SEM: ratio to PN159; for Relative TER Decrease: relative to PN159 = 1.0; for TER reduction (highest within the concentration range tested): EpiAirway epithelial cells
[2] = system: EpiAirway™ human-derived tracheal/bronchial epithelial cells; assay: Cytotoxicity (LDH assay); assay type: cell-based
Experimental: The amount of cell death was assayed by measuring the loss of lactate dehydrogenase (LDH) from the cells using a CytoTox 96 Cytoxicity Assay Kit (Promega Corp., Madison, Wis.). Fifty microliters of sample was loaded into a 96-well assay plates. Fresh, cell-free culture medium was used as a blank. 50 μl of substrate solution was added to each well and the plates incubated for 30 minutes at room temperature in the dark. Following incubation, 50 μl of stop solution was added to each well and the plates read on an optical density plate reader at 490 nm.
The amount of cell death will be assayed by measuring the loss of lactate dehydrogenase (LDH) from the cells using a CytoTox 96 Cytotoxicity Assay Kit (Promega Corp., Madison, Wis.). Fifty microliters of sample will be loaded into a 96-well assay plates. Fresh, cell-free culture medium will be used as a blank. Fifty microliters of substrate solution will be added to each well and the plates incubated for 30 minutes at room temperature in the dark. Following incubation, 50 μl of stop solution will be added to each well and the plates read on an optical density plate reader at 490 nm. The measurement of LDH release into the basolateral media indicates relative cytotoxicity of the samples. One hundred percent lysis of control inserts with 0.3% Octylphenolpoly(ethyleneglycolether)×(TritonX-100) allows LDH values to be expressed as percentage of total lysis.
In some embodiments, The amount of cell death was assayed by measuring the release of lactate dehydrogenase (LDH) from the cells into the apical medium using a CytoTox 96 Cytotoxicity Assay Kit (Promega Corp., Madison, Wis.). One percent Octylphenolpoly (ethyleneglycolether)×(Triton X-100™) diluted in phosphate buffered saline (PBS) causes 100% lysis in cultured cells and served herein as a positive control for the LDH assay. Following the one hour incubation period with a test formulation (refer to Table 24 of Example 25 for details of test formulations), the total liquid volume of each insert was brought to a final volume of 200 μl with culture medium. The apical medium was then mixed by pipetting four times with a multichannel pipette set to a 100 μl volume. After mixing, a 100 μl sample from the apical side of each insert was transferred to a new 96-well plate. The apical media samples were sealed with a plate sealer and stored at room temperature for same day analysis or stored overnight at 4° C. for analysis the next day. To measure LDH levels, 5 μl of the 100 μl apical media sample was diluted in 45 μl DPBS in a new 96-well plate. Fresh, cell-free culture medium will be used as a blank. Fifty microliters of substrate solution was added to each well and incubated for 30 minutes at room temperature away from direct light. Following the 30 minute incubation, 50 μl of stop solution was added to each well. Optical density (OD) was measured at 490 nm with a uQuant absorbance plate reader from Biotek Instruments. The measurement of LDH release into the apical media indicates relative cytotoxicity of the samples. Percent cytotoxicity for each test formulation was calculated by subtracting the measured absorbance of the PBS control (basal level of LDH release) from the measured absorbance of the individual test formulation and then dividing that value by the measured absorbance for the 1% Triton X-100™ positive control, multiplied by 100.
An LDH assay was used to assess the cytotoxicity of the treatments. The LDH level was determined by CytoTox96 Non-Radioactive Cytotoxic Assay (Promega, Madison, Wis.) following the manufacturer's protocol. For basal-lateral LDH levels, triplicates of 50 ul of the basal medium were used to determine the LDH level. For apical LDH level, 150 ul of the diluted apical sample was removed by adding 150 ul of Epi-CM to the apical chamber, the medium was mixed by pipeting up and down, and 150 ul medium was removed and diluted 2× (for a final 8-fold dilution) for assay in triplicates of 50 ul.

[3] = 15 minute treatment at the peptide's optimal concentration
[4] = 60 minute treatment at the peptide's optimal concentration

| Molecule | TER(x)/TER(159) +/− SEM [1] | Relative TER Decrease [1] | also measured |
| --- | --- | --- | --- |
| CC[C@H](C)[C@H](NC(=O)[C@H](CCCCN)NC(=O)[C@@H](NC(=O)[C@H](CCC(N)=O)NC(=O)[C@@H](N)CCCNC(=N)N)[C@@H](C)CC)C(=O)N[C@@H](Cc1c[nH]c2ccccc12)C(=O)N[C@@H](Cc1ccccc1)C(=O)N[C@@H](CCC(N)=O)C(=O)N[C@@H](CC(N)=O)C(=O)N[C@@H](CCCNC(=N)N)C(=O)N[C@@H](CCCNC(=N)N)C(=O)N[C@@H](CCSC)C(=O)N[C@@H](CCCCN)C(=O)N[C@@H](Cc1c[nH]c2ccccc12)C(=O)N[C@@H](CCCCN)C(=O)N[C@@H](CCCCN)C(N)=O [PN58] |  |  | TER reduction ([1]; 250 μM peptide): −6%; TER reduction ([1]; 500 μM peptide): 64%; TER reduction ([1]; 1000 μM peptide): 88%; LDH15 [2, 3]: 0.0007; LDH60 [2, 4]: 0.02 |
| CC(C)C[C@@H](NC(=O)[C@H](N)CCCCN)C(=O)N[C@H](C)C(=O)N[C@H](CC(C)C)C(=O)N[C@H](CCCCN)C(=O)N[C@H](CC(C)C)C(=O)N[C@H](C)C(=O)N[C@H](CC(C)C)C(=O)N[C@H](CCCCN)C(=O)N[C@H](C)C(=O)N[C@H](CC(C)C)C(=O)N[C@H](CCCCN)C(=O)N[C@H](C)C(=O)N[C@H](C)C(=O)N[C@H](CC(C)C)C(=O)N[C@H](CCCCN)C(=O)N[C@H](CC(C)C)C(=O)N[C@H](C)C(N)=O [PN393, NH2-klalklalkalkaalkla-amide] | 1.06 +/− 0.00 |  |  |
| CC(C)C[C@H](NC(=O)[C@H](CC(C)C)NC(=O)[C@@H](CCCCN)NC(=O)[C@H](CC(C)C)NC(=O)[C@H](CC(C)C)NC(=O)[C@H](CCCCN)NC(=O)[C@@H](CCCCN)NC(=O)[C@@H](CC(C)C)NC(=O)[C@H](CC(C)C)NC(=O)[C@@H](CCCCN)NC(=O)[C@H](CCCCN)NC(=O)[C@H](CC(C)C)NC(=O)[C@@H](CC(C)C)NC(=O)[C@H](CCCCN)NC(=O)[C@@H](N)CC(C)C)C(N)=O [PN407, NH2-LKlLKkLlkKLLkLL-amide] (H-LK[dL]LK[dK]L[dL][dK]KLL[dK]LL-NH2) | 1.08 +/− 0.01 | 1.1 |  |
| CC(C)C[C@@H](NC(=O)[C@@H](C)N)C(=O)N[C@H](CCCCN)C(=O)N[C@H](CC(C)C)C(=O)N[C@H](C)C(=O)N[C@H](C)C(=O)N[C@H](CCCCN)C(=O)N[C@H](CC(C)C)C(=O)N[C@H](C)C(=O)N[C@H](CCCCN)C(=O)N[C@H](CC(C)C)C(=O)N[C@H](C)C(=O)N[C@H](CC(C)C)C(=O)N[C@H](CCCCN)C(=O)N[C@H](CC(C)C)C(=O)N[C@H](C)C(=O)N[C@H](CC(C)C)C(=O)N[C@H](CCCCN)C(N)=O [PN408, NH2-alklaaklaklalklalk-amide] | 1.05 +/− 0.01 |  |  |
| CC(C)C[C@H](NC(=O)[C@H](C)NC(=O)[C@H](CCCCN)NC(=O)[C@H](CC(C)C)NC(=O)[C@H](CC(N)=O)NC(=O)[C@H](CC(C)C)NC(=O)[C@H](CCCCN)NC(=O)[C@H](CC(C)C)NC(=O)[C@@H](CCCCN)NC(=O)[C@H](CC(C)C)NC(=O)[C@H](CCCCN)NC(=O)[C@H](CC(C)C)NC(=O)[C@H](C)NC(=O)[C@H](C)NC(=O)[C@H](CCCCN)NC(=O)[C@H](CC(C)C)NC(=O)[C@H](C)NC(=O)[C@H](CCCCN)NC(=O)[C@H](CC(C)C)NC(=O)[C@H](C)NC(=O)[C@H](CCCCN)NC(=O)[C@H](CC(C)C)NC(=O)[C@H](C)NC(=O)[C@H](CC(C)C)NC(=O)[C@@H](N)CCCCN)C(N)=O [PN422] (H-KLALKALKALKAALKL[dK]LKLNLKAL-NH2) | 0.47 +/− 0.07 |  |  |
| H-AAVALLPAVLLALLAPRKKRRQRRRPPQ-NH2 [PN27] |  |  | TER reduction ([1]; 125 μM peptide): 81%; TER reduction ([1]; 250 μM peptide): 91%; TER reduction ([1]; 500 μM peptide): 94%; LDH15 [2, 3]: 0.0056; LDH60 [2, 4]: 0.035 |
| H-KALAALLKKAAKLLAALK-NH2 [PN442] | 0.93 +/− 0.03 |  |  |
| H-KALAALLKKLAKLLAALK-NH2 [PN444] | 0.82 +/− 0.05 |  |  |
| H-KALKLKAALALLAKLKLA-NH2 [PN424] | 0.59 +/− 0.07 |  |  |
| H-KETWWETWWTEWSQPGRKKRRQRRRRPPQ-NH2 [PN183] |  |  | TER reduction ([1]; 100 μM peptide): 25%; TER reduction ([1]; 500 μM peptide): 41%; TER reduction ([1]; 1000 μM peptide): 55%; TER reduction (highest within the concentration range tested) [1]: 55% |
| H-KLAAALLKKAKKLAAALL-NH2 [PN441] | 0.54 +/− 0.04 |  |  |
| H-KLALKLALKALKAALK-NH2 [PN418] | 1.05 +/− 0.05 |  |  |
| H-KLALKLALKALKAALKLALK-NH2 [PN419] | 1.23 +/− 0.01 |  |  |
| H-KLALKLALKALKAALKLALKLA-NH2 [PN420] | 0.77 +/− 0.05 |  |  |
| H-KLALKLALKALKAALKLALKLALK-NH2 [PN421] | 0.74 +/− 0.11 |  |  |
| H-KLALKLALKNLKAALKLA-NH2 [PN448] |  | 0.4 |  |
| H-KLAWKLALKALKAALKLA-NH2 [PN0425] |  | 1.0 |  |
| H-KLAWKLALKALKAAWKLA-NH2 [PN0427] |  | 1.0 |  |
| H-KLAWKLAWKALKAAWKLA-NH2 [PN0428] |  | 0.7 |  |
| H-KLWSAWPSLWSSLWKP-NH2 [PN228] |  |  | TER reduction ([1]; 100 μM peptide): 9%; TER reduction ([1]; 500 μM peptide): 82%; LDH15 [2]: 0.0063; LDH60 [2]: 0.046 |
| H-LKLLKKLLKKLLKLL-NH2 [PN406] |  | 0.9 |  |
| H-LKTLATALTKLAKTLTTL-NH2 [PN443] |  | 0.3 |  |
| H-RKKRRQRRRPPQCAAVALLPAVLLALLAP-NH2 [PN28] |  |  | TER reduction (highest within the concentration range tested) [1]: functionally equivalent to PN27 |
| H-RLAWRLALRALRAALRLA-NH2 [PN395] |  | 0.8 |  |
| Octylphenolpoly (ethyleneglycolether)×(Triton X-100™) [Triton X-100 ™, reference compound] |  |  | % Triton-X LDH Release ([2]; 1% Triton X-100, positive control): 100% |
